Earlier results, collected in patent US7799357B2, “In vitro resveratrol-rich callus tissues derived from Vitis thunbergii Sieb. et Zucc and method for producing the same” (Tatung Company, priority 2007, dated 2010).

Test system: Nothobranchius furzeri
Conditions: short-lived fish Nothobranchius furzeri

For `Oc1ccc(/C=C/c2cc(O)cc(O)c2)cc1` [Resveratrol, 3,5,4′-trihydroxystilbene], the “extension of maximum lifespan” value (maximum lifespan) is given as 59% and the “extension of median lifespan” value (median lifespan) is given as 56%.
